Eleven compounds from patent US20230157289A1, “HERBICIDAL PHENYLURACILS” (BASF-SE, priority 2020, published 2023) can be followed below.

What all share (type): in vivo
The subject of one experiment is Amaranthus retroflexus. Description: greenhouse post-emergence herbicidal test, AMARE. From the text: (§1) The culture containers used were plastic flowerpots containing loamy sand with approximately 3.0% of humus as the substrate. The seeds of the test plants were sown separately for each species.
(§2) For the pre-emergence treatment, the active ingredients, which had been suspended or emulsified in water, were applied directly after sowing by means of finely distributing nozzles. The containers were irrigated gently to promote germination and growth and subsequently covered with transparent plastic hoods until the test plants had rooted. This cover caused uniform germination of the test plants, unless this had been impaired by the active ingredients. For the post-emergence treatment, the test plants were first grown to a height of 3 to 15 cm, depending on the plant habit, and only then treated with the active ingredients which had been suspended or emulsified in water. For this purpose, the test plants were either sown directly and grown in the same containers, or they were first grown separately as seedlings and transplanted into the test containers a few days prior to treatment.
(§3) Depending on the species, the test plants were kept at 10 - 25° C. or 20 - 35° C., respectively. The test period extended over 2 to 4 weeks. During this time, the test plants were tended, and their response to the individual treatments was evaluated.
(§4) Evaluation was carried out using a scale from 0 to 100. 100 means no emergence of the test plants, or complete destruction of at least the aerial moieties, and 0 means no damage, or normal course of growth. A good herbicidal activity is given at values of at least 70 and a very good herbicidal activity is given at values of at least 85.

A further experiment has as its system Chenopodium album. The experiment can be described thus: greenhouse post-emergence herbicidal test, CHEAL.
Description: as §1, §2, §3, §4

The subject of a further experiment is Setaria viridis. The experiment can be described thus: greenhouse post-emergence herbicidal test, SETVI.
Description: as §1, §2, §3, §4

A further experiment relates to Alopecurus myosuroides. Description: greenhouse post-emergence herbicidal test, ALOMY. Particulars: scale from 0 to 100.
Description: as §1, §2, §3, §4

Another experiment has as its system Lolium multiflorum. The experiment can be described thus: greenhouse post-emergence herbicidal test, LOLMU. Particulars: scale from 0 to 100.
Description: as §1, §2, §3, §4

In another experiment the test system is Avena fatua. Description: greenhouse post-emergence herbicidal test, AVEFA. Particulars: application rate 2 g/ha, scale from 0 to 100.
Description: as §1, §2, §3, §4

The next experiment relates to Echinocloa crus-galli. The experiment can be described thus: greenhouse post-emergence herbicidal test, ECHCG. Particulars: scale from 0 to 100.
Description: as §1, §2, §3, §4

Where [1] appears, read: application rate 16 g/ha, AMARE, scale from 0 to 100, read-out: herbicidal activity.
The mark [2] stands for this setting: application rate 16 g/ha, CHEAL, scale from 0 to 100, read-out: herbicidal activity.
Where [3] appears, read: application rate 16 g/ha, SETVI, scale from 0 to 100, read-out: herbicidal activity.

Read-outs that look alike come from different tables or passages of the source. A value given as a limit tells only on which side of the number the result lay.

Consider `C=CCOC(=O)C(OC)Oc1ccccc1Oc1cc(-n2c(=O)cc(C(F)(F)F)n(C)c2=O)c(F)cc1Br` (racemic) [example 4, allyl rac-2-[2-[2-bromo-4-fluoro-5-[3-methyl-2,6-dioxo-4-(trifluoromethyl)pyrimidin-1-yl]phenoxy]phenoxy]-2-methoxy-acetate], for which the pest or weed control at 16 g/ha in the experiment with Amaranthus retroflexus (setting [1]), with Chenopodium album (setting [2]) and with Setaria viridis (setting [3]) was more than 85% throughout.

As to `C#CCOC(=O)C(OC)Oc1ccccc1Oc1cc(-n2c(=O)cc(C(F)(F)F)n(C)c2=O)c(F)cc1Br` (racemic) [example 5, prop-2-ynyl rac-2-[2-[2-bromo-4-fluoro-5-[3-methyl-2,6-dioxo-4-(trifluoromethyl)pyrimidin-1-yl]phenoxy]phenoxy]-2-methoxy-acetate], the pest or weed control at 16 g/ha in the experiment with Amaranthus retroflexus (setting [1]), with Chenopodium album (setting [2]) and in the experiment with Setaria viridis (setting [3]) was more than 85% in each case.

For the compound `COCCOC(=O)C(OC)Oc1ccccc1Oc1cc(-n2c(=O)cc(C(F)(F)F)n(C)c2=O)c(F)cc1Br` (racemic) [example 6, 2-methoxyethyl rac-2-[2-[2-bromo-4-fluoro-5-[3-methyl-2,6-dioxo-4-(trifluoromethyl)pyrimidin-1-yl]phenoxy]phenoxy]-2-methoxy-acetate], the pest or weed control at 16 g/ha in the experiment on Amaranthus retroflexus (setting [1]) was more than 85%; with Chenopodium album (setting [2]), more than 70%; in the experiment with Setaria viridis (setting [3]) it was more than 70%.

As to `COC(Oc1ccccc1Oc1cc(-n2c(=O)cc(C(F)(F)F)n(C)c2=O)c(F)cc1Br)C(=O)NS(C)(=O)=O` (racemic) [example 8, rac-2-[2-[2-bromo-4-fluoro-5-[3-methyl-2,6-dioxo-4-(trifluoromethyl)pyrimidin-1-yl]phenoxy]phenoxy]-2-methoxy-N-methylsulfonyl-acetamide], the pest or weed control at 16 g/ha in the experiment with Amaranthus retroflexus (setting [1]), in the experiment with Chenopodium album (setting [2]) and in the experiment with Setaria viridis (setting [3]) was more than 85% each time.

With `COC(=O)C(Oc1ccccc1Oc1cc(-n2c(=O)cc(C(F)(F)F)n(C)c2=O)c(F)cc1Br)SC` (racemic) [example 9, methyl rac-2-[2-[2-bromo-4-fluoro-5-[3-methyl-2,6-dioxo-4-(trifluoromethyl)pyrimidin-1-yl]phenoxy]phenoxy]-2-methylsulfanyl-acetate], the pest or weed control at 16 g/ha in the experiment with Amaranthus retroflexus (setting [1]), with Chenopodium album (setting [2]) and in the experiment on Setaria viridis (setting [3]) was more than 85% each time.

Consider `CCOC(=O)C(F)Oc1ccccc1Oc1cc(-n2c(=O)cc(C(F)(F)F)n(C)c2=O)c(F)cc1Br` (racemic) [example 10, ethyl rac-2-[2-[2-bromo-4-fluoro-5-[3-methyl-2,6-dioxo-4-(trifluoromethyl)pyrimidin-1-yl]phenoxy]phenoxy]-2-fluoro-acetate], for which the pest or weed control at 16 g/ha with Amaranthus retroflexus (setting [1]), in the experiment on Chenopodium album (setting [2]) and with Setaria viridis (setting [3]) was more than 85% throughout.

Consider `COC(=O)C(OC)Oc1ccccc1Oc1cc(-n2c(=O)c(C)c(C(F)(F)F)n(C)c2=O)c(F)cc1Br` (racemic) [example 11, methyl rac-2-[2-[2-bromo-5-[3,5-dimethyl-2,6-dioxo-4-(trifluoromethyl)pyrimidin-1-yl]-4-fluoro-phenoxy]phenoxy]-2-methoxy-acetate], for which the pest or weed control at 16 g/ha in the experiment on Amaranthus retroflexus (setting [1]), with Chenopodium album (setting [2]) and in the experiment on Setaria viridis (setting [3]) was more than 85% throughout.

In the case of `COC(=O)C(OC)Oc1ncccc1Oc1cc(-n2c(=O)cc(C(F)(F)F)n(C)c2=O)c(F)cc1Br` (racemic) [example 12, methyl rac-2-[[3-[2-bromo-4-fluoro-5-[3-methyl-2,6-dioxo-4-(trifluoromethyl)pyrimidin-1-yl]phenoxy]-2-pyridyl]oxy]-2-methoxy-acetate], the pest or weed control at 16 g/ha in the experiment on Amaranthus retroflexus (setting [1]) and in the experiment with Chenopodium album (setting [2]) was more than 85% throughout.

In the case of `COC(=O)C(OC)Oc1ccccc1Oc1cc(-n2c(=O)cc(C(F)(F)F)n(C)c2=O)c(F)cc1Cl` (centres unmarked) [cmpd 3 (WO 11/137088)], the damages was determined as 75 in the experiment on Alopecurus myosuroides (application rate 4 g/ha); 80 in the experiment on Alopecurus myosuroides (application rate 8 g/ha); 60 in the experiment on Lolium multiflorum (application rate 4 g/ha); 75 in the experiment on Lolium multiflorum (application rate 8 g/ha); 65 with Avena fatua; 45 with Echinocloa crus-galli (application rate 1 g/ha). Moreover, the damages in the experiment on Echinocloa crus-galli (application rate 2 g/ha) amounted to 90.

As for `COC(=O)C(OC)Oc1ccccc1Oc1nc(-n2c(=O)cc(C(F)(F)F)n(C)c2=O)c(F)cc1Br` (centres unmarked) [cmpd I.a.646 (WO 17/202768)], the damages in the experiment on Alopecurus myosuroides (application rate 4 g/ha) was 50; in the experiment with Alopecurus myosuroides (application rate 8 g/ha) it was 70; in the experiment on Lolium multiflorum (application rate 4 g/ha), 60; with Lolium multiflorum (application rate 8 g/ha) it was 65; with Avena fatua, 40; in the experiment on Echinocloa crus-galli (application rate 1 g/ha), 25. The compound further registered a damages in the experiment with Echinocloa crus-galli (application rate 2 g/ha) of 65.

In the case of `COC(=O)C(OC)Oc1ccccc1Oc1cc(-n2c(=O)cc(C(F)(F)F)n(C)c2=O)c(F)cc1Br` (centres unmarked) [example 1, Methyl 2-[2-[2-bromo-4-fluoro-5-[3-methyl-2,6-dioxo-4-(trifluoromethyl)pyrimidin-1-yl]phenoxy]phenoxy]-2-methoxy-acetate], the pest or weed control at 16 g/ha in the experiment with Amaranthus retroflexus (read-out: herbicidal activity), in the experiment on Chenopodium album (read-out: herbicidal activity) and in the experiment with Setaria viridis (read-out: herbicidal activity) was more than 85% in each case. Moreover, the damages with Alopecurus myosuroides (application rate 4 g/ha) amounted to 95; in the experiment with Alopecurus myosuroides (application rate 8 g/ha) it was 95; in the experiment with Lolium multiflorum (application rate 4 g/ha), 75; in the experiment with Lolium multiflorum (application rate 8 g/ha) it was 85; in the experiment with Avena fatua, 85; in the experiment with Echinocloa crus-galli (application rate 1 g/ha), 90. In the experiment on Echinocloa crus-galli (application rate 2 g/ha), this compound had a damages of 98.
